Test results reported in ChEMBL document CHEMBL3045679, “Microwave-assisted synthesis and pharmacological studies of novel 5-deazaalloxazine derivatives” (2012).
In brackets after ≈: the same amount, converted by molar mass. Activity calls are given as the source filed them. The rule behind the calls is not given here.

Assays:
Aspergillus flavus [1] = test: Antifungal activity against Aspergillus flavus NCIM 535 at 500 ug/disk after 72 hr by disk diffusion method; format: functional
Penicillium chrysogenum [2] = test: Antifungal activity against Penicillium chrysogenum NCIM 707 after 72 hr by broth dilution assay; format: functional; settings: NCIM 707, 72 h
Candida albicans [3] = test: Antifungal activity against Candida albicans NCIM 3471 at 500 ug/disk after 72 hr by disk diffusion method; format: functional
Candida albicans [4] = test: Antifungal activity against Candida albicans NCIM 3471 at 1000 ug/disk after 72 hr by disk diffusion method; format: functional
Klebsiella aerogenes [5] = test: Antibacterial activity against Enterobacter aerogenes NCIM 2239 at 500 ug/disk after 24 hr by disk diffusion method; format: functional
Bacillus subtilis [6] = test: Antibacterial activity against Bacillus subtilis NCIM 2063 at 500 ug/disk after 24 hr by disk diffusion method; format: functional
Klebsiella aerogenes [7] = test: Antibacterial activity against Enterobacter aerogenes NCIM 2239 at 1000 ug/disk after 24 hr by disk diffusion method; format: functional; settings: NCIM 2239, 24 h, read-out: DIZ
Bacillus cereus [8] = test: Antibacterial activity against Bacillus cereus NCIM 2155 at 500 ug/disk after 24 hr by disk diffusion method; format: functional
Rhodotorula mucilaginosa [9] = test: Antifungal activity against Rhodotorula mucilaginosa NCIM 3174 at 1000 ug/disk after 72 hr by disk diffusion method; format: functional
Streptomyces albus [10] = test: Antibacterial activity against Streptomyces albus NCIM 2178 at 500 ug/disk after 24 hr by disk diffusion method; format: functional, organism-based
Lipomyces lipofer [11] = test: Antifungal activity against Lipomyces lipofer NCIM 3252 at 500 ug/disk after 72 hr by disk diffusion method; format: functional; settings: NCIM 3252, 72 h, read-out: DIZ
Aspergillus niger [12] = test: Antifungal activity against Aspergillus niger NCIM 1196 after 72 hr by broth dilution assay; format: functional; settings: NCIM 1196, 72 h
Aspergillus flavus [13] = test: Antifungal activity against Aspergillus flavus NCIM 535 at 1000 ug/disk after 72 hr by disk diffusion method; format: functional
Escherichia coli [14] = test: Antibacterial activity against Escherichia coli NCIM 2065 after 24 hr by broth dilution assay; format: functional; settings: NCIM 2065, 24 h
Escherichia coli [15] = test: Antibacterial activity against Escherichia coli NCIM 2065 at 500 ug/disk after 24 hr by disk diffusion method; format: functional; settings: NCIM 2065, 24 h, read-out: DIZ
Lipomyces lipofer [16] = test: Antifungal activity against Lipomyces lipofer NCIM 3252 at 1000 ug/disk after 72 hr by disk diffusion method; format: functional; settings: NCIM 3252, 72 h, read-out: DIZ
Penicillium chrysogenum [17] = test: Antifungal activity against Penicillium chrysogenum NCIM 707 at 500 ug/disk after 72 hr by disk diffusion method; format: functional
Bacillus cereus [18] = test: Antibacterial activity against Bacillus cereus NCIM 2155 after 24 hr by broth dilution assay; format: functional; settings: NCIM 2155, 24 h
Escherichia coli [19] = test: Antibacterial activity against Escherichia coli NCIM 2065 at 1000 ug/disk after 24 hr by disk diffusion method; format: functional; settings: NCIM 2065, 24 h, read-out: DIZ
Bacillus subtilis [20] = test: Antibacterial activity against Bacillus subtilis NCIM 2063 at 1000 ug/disk after 24 hr by disk diffusion method; format: functional; settings: NCIM 2063, 24 h, read-out: DIZ
Bacillus subtilis [21] = test: Antibacterial activity against Bacillus subtilis NCIM 2063 after 24 hr by broth dilution assay; format: functional; settings: NCIM 2063, 24 h
Streptomyces albus [22] = test: Antibacterial activity against Streptomyces albus NCIM 2178 at 1000 ug/disk after 24 hr by disk diffusion method; format: functional
Bacillus cereus [23] = test: Antibacterial activity against Bacillus cereus NCIM 2155 at 1000 ug/disk after 24 hr by disk diffusion method; format: functional; settings: NCIM 2155, 24 h, read-out: DIZ
Aspergillus niger [24] = test: Antifungal activity against Aspergillus niger NCIM 1196 at 1000 ug/disk after 72 hr by disk diffusion method; format: functional; settings: NCIM 1196, 72 h, read-out: DIZ
Penicillium chrysogenum [25] = test: Antifungal activity against Penicillium chrysogenum NCIM 707 at 1000 ug/disk after 72 hr by disk diffusion method; format: functional; settings: NCIM 707, 72 h, read-out: DIZ
Klebsiella aerogenes [26] = test: Antibacterial activity against Enterobacter aerogenes NCIM 2239 after 24 hr by broth dilution assay; format: functional; settings: NCIM 2239, 24 h
Aspergillus niger [27] = test: Antifungal activity against Aspergillus niger NCIM 1196 at 500 ug/disk after 72 hr by disk diffusion method; format: functional; settings: NCIM 1196, 72 h, read-out: DIZ
Pseudomonas aeruginosa [28] = test: Antibacterial activity against Pseudomonas aeruginosa NCIM 2200 after 24 hr by broth dilution assay; format: functional; settings: NCIM 2200, 24 h
Pseudomonas aeruginosa [29] = test: Antibacterial activity against Pseudomonas aeruginosa NCIM 2200 at 500 ug/disk after 24 hr by disk diffusion method; format: functional
Pseudomonas aeruginosa [30] = test: Antibacterial activity against Pseudomonas aeruginosa NCIM 2200 at 1000 ug/disk after 24 hr by disk diffusion method; format: functional; settings: NCIM 2200, 24 h, read-out: DIZ
Rhodotorula mucilaginosa [31] = test: Antifungal activity against Rhodotorula mucilaginosa NCIM 3174 at 500 ug/disk after 72 hr by disk diffusion method; format: functional
Lipomyces lipofer [32] = test: Antifungal activity against Lipomyces lipofer NCIM 3252 after 72 hr by broth dilution assay; format: functional; settings: NCIM 3252, 72 h
Streptomyces albus [33] = test: Antibacterial activity against Streptomyces albus NCIM 2178 after 24 hr by broth dilution assay; format: functional; settings: NCIM 2178, 24 h

SMILES | diameter of the inhibition zone (DIZ) (Aspergillus flavus [1]) | diameter of the inhibition zone (DIZ) (Candida albicans [3]) | diameter of the inhibition zone (DIZ) (Candida albicans [4]) | diameter of the inhibition zone (DIZ) (Klebsiella aerogenes [5]) | zone of inhibition at 1000 µg/disc (Klebsiella aerogenes [7]) | diameter of the inhibition zone (DIZ) (Bacillus cereus [8]) | diameter of the inhibition zone (DIZ) (Streptomyces albus [10]) | zone of inhibition at 500 µg/disc (Lipomyces lipofer [11]) | MIC (Aspergillus niger [12]) | MIC (Escherichia coli [14]) | zone of inhibition at 500 µg/disc (Escherichia coli [15]) | zone of inhibition at 1000 µg/disc (Lipomyces lipofer [16]) | diameter of the inhibition zone (DIZ) (Penicillium chrysogenum [17]) | MIC (Bacillus cereus [18]) | zone of inhibition at 1000 µg/disc (Escherichia coli [19]) | zone of inhibition at 1000 µg/disc (Bacillus subtilis [20]) | MIC (Bacillus subtilis [21]) | zone of inhibition at 1000 µg/disc (Bacillus cereus [23]) | zone of inhibition at 1000 µg/disc (Aspergillus niger [24]) | zone of inhibition at 1000 µg/disc (Penicillium chrysogenum [25]) | other results
COc1ccc2nc3[nH]c(=S)[nH]c(=O)c3cc2c1 | inactive | inactive | inactive | inactive | 13 mm | inactive | inactive | 11 mm | 7.8 µg/mL (≈ 30.1 µM) | 31.2 µg/mL (≈ 120 µM) | 9 mm | 12 mm | inactive | 125 µg/mL (≈ 482 µM) | 13 mm | 11 mm | 62.5 µg/mL (≈ 241 µM) | 10 mm | 13 mm | 12 mm | MIC (Penicillium chrysogenum [2]): 125 µg/mL (≈ 482 µM); diameter of the inhibition zone (DIZ) (Bacillus subtilis [6]): inactive; zone of inhibition at 1000 µg/disc (Rhodotorula mucilaginosa [9]; NCIM 3174, 72 h, read-out: DIZ): 8 mm; diameter of the inhibition zone (DIZ) (Aspergillus flavus [13]): inactive; diameter of the inhibition zone (DIZ) (Streptomyces albus [22]): inactive; MIC (Klebsiella aerogenes [26]): 15.6 µg/mL (≈ 60.2 µM); zone of inhibition at 500 µg/disc (Aspergillus niger [27]): 11 mm; MIC (Pseudomonas aeruginosa [28]): 3.9 µg/mL (≈ 15 µM); zone of inhibition at 500 µg/disc (Pseudomonas aeruginosa [29]; NCIM 2200, 24 h, read-out: DIZ): 9 mm; zone of inhibition at 1000 µg/disc (Pseudomonas aeruginosa [30]): 15 mm; diameter of the inhibition zone (DIZ) (Rhodotorula mucilaginosa [31]): inactive; MIC (Lipomyces lipofer [32]): 125 µg/mL (≈ 482 µM)
Cc1cccc2cc3c(=O)[nH]c(=S)[nH]c3nc12 | inactive | inactive | inactive | inactive | 10 mm | inactive | inactive | 8 mm | 3.9 µg/mL (≈ 16 µM) | 31.2 µg/mL (≈ 128 µM) | 8 mm | 10 mm | inactive | 31.2 µg/mL (≈ 128 µM) | 11 mm | 12 mm | 31.2 µg/mL (≈ 128 µM) | 13 mm | 16 mm | 9 mm | zone of inhibition at 500 µg/disc (Bacillus subtilis [6]; NCIM 2063, 24 h, read-out: DIZ): 9 mm; diameter of the inhibition zone (DIZ) (Rhodotorula mucilaginosa [9]): inactive; zone of inhibition at 1000 µg/disc (Aspergillus flavus [13]; NCIM 535, 72 h, read-out: DIZ): 10 mm; MIC (Streptomyces albus [33]): 125 µg/mL (≈ 514 µM); zone of inhibition at 1000 µg/disc (Streptomyces albus [22]; NCIM 2178, 24 h, read-out: DIZ): 12 mm; MIC (Klebsiella aerogenes [26]): 15.6 µg/mL (≈ 64.1 µM); zone of inhibition at 500 µg/disc (Aspergillus niger [27]): 12 mm; MIC (Pseudomonas aeruginosa [28]): 6.5 µg/mL (≈ 26.7 µM); diameter of the inhibition zone (DIZ) (Pseudomonas aeruginosa [29]): inactive; zone of inhibition at 1000 µg/disc (Pseudomonas aeruginosa [30]): 12 mm; diameter of the inhibition zone (DIZ) (Rhodotorula mucilaginosa [31]): inactive; MIC (Lipomyces lipofer [32]): 125 µg/mL (≈ 514 µM)
